Assay results as given in patent US5538960A, “Hydrazono-5β, 14β-androstane derivatives active on the cardiovascular system, and pharmaceutical compositions containing same” (SIGMA-TAU Industrie Farmaceutiche Riunite S.p.A., priority 1992, dated 1996).

Tests used:
[1] = tested on: Na^+,K+ -ATPase; conditions: Gelbart and Thomas 1978; Schonfeld and Repke 1988; Thomas et al. 1974; Boutagy et al. 1973; cited from earlier work
[2] = Gelbart and Thomas 1978; Schonfeld and Repke 1988; cited from earlier work
[3] = biological target: T1, Na^+,K+ -ATPase (Canis lupus familiaris, UniProt P50997); experiment: displacement of the specific ^3 H-ouabain binding from the Na^+,K+ -ATPase receptor
T1 construct: Na^+,K+ -ATPase receptor purified according to Jorghensen; from tissue
Description: (§1) To test the affinity for the receptor site of the Na^+,K+ -ATPase and the agonist or antagonist activity on the enzyme, the following tests were used:
a) displacement of the specific ^3 H-ouabain binding from the Na^+,K+ -ATPase receptor purified according to Jorghensen (Jorghensen P., BBA, 1974, 356, 36) and Erdmann (Erdmann E. et al., Arzneim. Forsh., 1984, 34, 1314);

[4] = biological target: T1, Na^+,K+ -ATPase; experiment: inhibition of the activity of the purified Na^+,K+ -ATPase measured as % of hydrolysis of ^32 P-ATP; assay type: biochemical
Description: as §1
b) inhibition of the activity of the purified Na^+,K+ -ATPase measured as % of hydrolysis of ^32 P-ATP in presence and in absence of the tested compound (Mall F. et al., Biochem. Pharmacol, 1984, 33, 47)

[5] = tested on: spontaneous hypertensive rats (MHS); experiment: effect of 5 week-treatment on the development of hypertension in rats (SBP and HR, tail cuff method); assay type: in vivo, rat; conditions: 20 mg/Kg/os daily in Methocel 0.5% w/v, 5 weeks, 7 rats; for SBP: controls 172 +/- 3.5; for HR: controls 380 +/- 9.0
Method: Systolic blood pressure (SBP) and heart rate (HR) were measured, by the tail cuff method, in young prehypertensive male rats (MHS or SHR) strains before the development of hypertension (4 weeks of age) for recording the basal values of SBP. Groups of 7 rats were formed and subdivided in control and treated groups. The compound, suspended in Methocel 0.5 % (w/v), was orally given daily for at least 5 weeks to the treated groups. The control group received only Methocel.
SBP and HR were measured weekly 6 and 24 hrs after treatment. After 5 weeks of treatment, when hypertension was fully developed in the control group (9 weeks of age), washout was started for at least one week, to verify whether the treatment mantained blood pressure low or reestablished the basal values. […] (Takeda K. et al., Japan J. Pharmacol, 1979, 29,171; Takeda K. et al. Japan J. Pharmacol., 1982, 32, 283; Richer C. et al. Eur. J. Pharmacol, 1978, 47,393).

[6] = purified Na^+,K+ -ATPase, hydrolysis of ^32 P-ATP
[7] = purified Na^+,K+ -ATPase receptor, read-out: Binding ^3 H-Ouab. Displacement log IC50 (converted)
[8] = purified Na^+,K+ -ATPase, hydrolysis of ^32 P-ATP, read-out: Inhibitory Activity log IC50 (converted)

| SMILES | IC50 [3] [nM] | IC50 [4] [µM] | IC50 [3, 7] [nM] | IC50 [4, 8] [µM] | also measured |
| --- | --- | --- | --- | --- | --- |
| C[C@]12CC[C@H](O)C[C@H]1CC[C@@H]1[C@@H]2CC[C@]2(C)C(C=NNC(=N)N)CC[C@]12O (stereo partly drawn) [17-Guanidinoiminomethyl-5β-androstane-3β,14β-diol] | – | – | – | – | inhibition of Na^+,K+ -ATPase [1]: weak inhibitors of Na^+,K+ -ATPase; positive inotropic activity [2]: weak positive inotropic agents |
| C[C@]12CC[C@H](O)C[C@H]1CC[C@@H]1[C@@H]2CC[C@]2(C)C(=NNC(=N)N)CC[C@]12O [17-guanidinoimino-5β-androstane-3β,14β-diol] | – | – | – | – | inhibition of Na^+,K+ -ATPase [1]: weak inhibitors of Na^+,K+ -ATPase; positive inotropic activity [2]: weak positive inotropic agents |
| C[C@]12CC[C@H](O)C[C@H]1CC[C@@H]1[C@@H]2CC[C@]2(C)[C@@H](/C=N/NC3=NCCN3)CC[C@]12O [Comp. I-aa, (E)-17β-(2-Imidazolin-2-yl)hydrazonomethyl-5β-androstane-3β,14β-diol] | 200 | – | – | – | Inhibitory Activity log IC50 [4, 6]: 5.2; SBP [5]: 149 +/- 3.7 mm Hg; HR [5]: 370 +/- 11.2 beats/min. |
| CN1CCN=C1N/N=C/[C@H]1CC[C@]2(O)[C@@H]3CC[C@@H]4C[C@@H](O)CC[C@]4(C)[C@H]3CC[C@]12C [Comp. I-ac, (E)-17β-(1-Methyl-2-imidazolin-2-yl)hydrazono-methyl-5β-androstane-3β,14β-diol] | 1000 | 12.6 | – | – | – |
| C[C@]12CC[C@H](O)C[C@H]1CC[C@@H]1[C@@H]2CC[C@]2(C)[C@@H](/C=N/NC3=NCCCN3)CC[C@]12O [Comp. I-ae, (E)-17β-(1,4,5,6-Tetrahydro-2-pyrimidinyl)hydrazonomethyl-5β-androstane-3β,14β-diol] | 251 | – | – | – | Inhibitory Activity log IC50 [4, 6]: 5.3 |
| C[C@]12CC[C@H](O)C[C@H]1CC[C@@H]1[C@@H]2CC[C@]2(C)[C@@H](/C=N/NC(=N)NC(=N)N)CC[C@]12O [Comp. I-af, (E)-17β-(3-Amidino)guanidinoiminomethyl-5β-androstane-3β,14β-diol] | 200 | 7.94 | – | – | – |
| CN(C)CCNC(=N)N/N=C/[C@H]1CC[C@]2(O)[C@@H]3CC[C@@H]4C[C@@H](O)CC[C@]4(C)[C@H]3CC[C@]12C [Comp. I-ag, (E)-17β-(3-(2-Dimethylaminoethyl)guanidinoimino)methyl-5β-androstane-3β,14β-diol] | – | 25.1 | 1000 | – | SBP [5]: 154 +/- 4.8 mm Hg; HR [5]: 390 +/- 5.9 beats/min. |
| C[C@]12CC[C@H](O)C[C@H]1CC[C@@H]1[C@@H]2CC[C@]2(C)[C@@H](/C=N/N=C(\N)Nc3ccccc3)CC[C@]12O [Comp. I-ah, (E)-17β-(3-Phenylguanidino)iminomethyl-5β-androstane-3β,14β-diol] | – | 100 | 6310 | – | – |
| CSC(=N)N/N=C/[C@H]1CC[C@]2(O)[C@@H]3CC[C@@H]4C[C@@H](O)CC[C@]4(C)[C@H]3CC[C@]12C [Comp. I-ak, (E)-17β-(3-Methylisothiosemicarbazono)methyl-5β-androstane-3β,14-diol] | 2000 | 31.6 | – | – | – |
| C[C@]12CC[C@H](OCCCN)C[C@H]1CC[C@@H]1[C@@H]2CC[C@]2(C)[C@@H](/C=N/NC(=N)N)CC[C@]12O [Comp. I-al, (E)-3β-(3-Aminopropoxy)-17β-guanidinoiminomethyl-5β-androstane-14β-ol] | 39.8 | – | – | 0.794 | SBP [5]: 153 +/- 6.3 mm Hg; HR [5]: 380 +/- 10.0 beats/min. |
| C[C@]12CC[C@H](OCCN3CCCC3)C[C@H]1CC[C@@H]1[C@@H]2CC[C@]2(C)[C@@H](/C=N/NC(=N)N)CC[C@]12O [Comp. I-an, (E)-3β-(2-(1-pyrrolidinyl)ethoxy)-17β-guanidinoiminomethyl-5β-androstane-14β-ol] | – | – | 39.8 | 0.501 | SBP [5]: 150 +/- 5.1 mm Hg; HR [5]: 384 +/- 7.9 beats/min. |
| C[C@]12CC[C@H](OCCCN)C[C@H]1CC[C@@H]1[C@@H]2CC[C@]2(C)[C@@H](/C=N/NC(N)=O)CC[C@]12O [Comp. I-aq, (E)-3β-(3-Aminopropoxy)-17β-semicarbazonomethyl-5β-androstane-14β-ol] | 1260 | – | – | 39.8 | – |
| C[C@]12CC[C@H](OCCN3CCCC3)C[C@H]1CC[C@@H]1[C@@H]2CC[C@]2(C)[C@@H](/C=N/NC(N)=O)CC[C@]12O [Comp. I-as, (E)-3β-(2-(1-Pyrrolidinyl)ethoxy)-17β-semicarbazonomethyl-5β-androstane-14β-ol] | 1580 | – | – | 39.8 | – |
| C[C@]12CC[C@H](OCCCN)C[C@H]1CC[C@@H]1[C@@H]2CC[C@]2(C)[C@@H](/C=N/NC3=NCCN3)CC[C@]12O [Comp. I-au, (E)-3β-(3-Aminopropoxy)-17β(2-imidazolin-2-yl)hydrazonomethyl-5β-androstane-14β-ol] | 100 | 3.98 | – | – | – |
| C[C@]12CC[C@H](OCCN3CCCC3)C[C@H]1CC[C@@H]1[C@@H]2CC[C@]2(C)[C@@H](/C=N/NC3=NCCN3)CC[C@]12O [Comp. I-aw, (E)-3β-(2-(1-Pyrrolidinyl)ethoxy)-17β-(2-imidazolin-2-yl)hydrazonomethyl-5β-androstane-14β-ol] | – | – | 100 | 0.398 | SBP [5]: 151 +/- 5.2 mm Hg; HR [5]: 388 +/- 9.0 beats/min. |
| C[C@]12CCC(=NNC(=N)N)C[C@H]1CC[C@@H]1[C@@H]2CC[C@]2(C)[C@@H](/C=N/NC(=N)N)CC[C@]12O [Comp. I-bi, 3-[(ZE)-Guanidinoimino]-17β-[(E)-guanidinoiminomethyl]-5β-androstane-14β-ol] | 126 | 5.01 | – | – | – |
| C/C(=N\N=C(N)N)[C@H]1CC[C@]2(O)[C@@H]3CC[C@@H]4C[C@@H](O)CC[C@]4(C)[C@H]3CC[C@]12C [Comp. I-bk, (E)-20-Guanidinoimino-5β-pregnane-3β,14β-diol] | 251 | 5.01 | – | – | – |
| C[C@]12CC[C@H](O)C[C@H]1CC[C@@H]1[C@@H]2CC[C@]2(C)[C@@](O)(/C=N/NC(=N)N)CC[C@]12O [Comp. I-bl, (E)-17β-Guanidinoiminomethyl-5β-androstane-3β,14β,17α-triol] | – | – | 1580 | 39.8 | – |
| C[C@]12CC[C@H](O)C[C@H]1CC[C@@H]1[C@@H]2CC[C@]2(C)[C@@](O)(/C=N/NC3=NCCN3)CC[C@]12O [Comp. I-bn, (E)-17β-(2-Imidazolin-2-yl)hydrazonomethyl-5β-androstane-3β,14β,17α-triol] | 3980 | 12.6 | – | – | – |
| C[C@]12CC[C@H](O)C[C@H]1CC[C@@H]1[C@@H]2CC[C@]2(C)/C(=N/NC3=NCCN3)CC[C@]12O [Comp. I-bo, (E)-17-(2-Imidazolin-2-yl)hydrazono-5β-androstane-3β,14β-diol] | – | – | 2000 | 39.8 | – |
